Laboratory results taken from PubChem BioAssay AID1963981 (Molecular Pharmacology Branch, DTP, NCI, 2024).

System: 354836-022-R-J1-PDC multicell spheroid viability
Experiment: Anticancer human tumor 354836-022-R-J1-PDC patient-derived head and neck squamous cell carcinoma cell line growth inhibition [PI3K]
Settings: for IC50: curve of first compound; for viability, T/C: stronger effect = lower value
Description: Combinatorial screen of targeted agents with the PI3K inhibitors inavolisib, alpelisib, duvelisib, and copanlisib in multi-cell type tumor spheroids
A high-throughput screen of multi-cell type tumor spheroids was designed to identify active combinations of targeted small molecules and PI3K pathway inhibitors. Complex spheroids include a stromal component modeled by human endothelial cells (HUVEC) and fibroblasts modeled by human mesenchymal stem cells (MSCs). The concentration ranges selected for each drug and investigational agent were based upon clinically achievable concentrations if the clinical Cmax of the agent was known.
Compounds. The drugs and investigational agents: inavolisib (NSC800729), alpelisib (NSC765974), duvelisib (NSC772469), copanlisib (NSC816437), ipatasertib (NSC767898), afuresertib (NSC778305), talazoparib (NSC767125), sapanisertib (NSC764658), selumetinib (NSC741078), tovorafenib (DAY101, NSC766906), vemurafenib (NSC761431), ravoxertinib (NSC781343), sotorasib (NSC818433), MRTX1133 (NSC 836407), abemaciclib (NSC 768073), palbociclib (NSC758247), venetoclax (NSC 766270), SY5609 (NSC837396), enzalutamide (NSC755605), and darolutamide (NSC825331), were obtained from the National Cancer Institute (NCI) Developmental Therapeutics Program Chemical Repository. The FDA-approved anticancer drug set is available from the NCI Developmental Therapeutics Program. […] The stock solutions were prepared in dimethyl sulfoxide (DMSO, Sigma-Aldrich, St. Louis, MO, cat. D2650) at 800-fold the tested concentration and stored at -70 degrees C prior to their use. All drugs and investigational agents were tested over a range starting from a high concentration at or near the clinical Cmax and decreasing in half-log increments. If the clinical Cmax for an agent had not been determined, the highest concentration tested was 10 microM.
Cell Culture. All cells were maintained in an incubator at 37 degrees C and 5% CO2 with 95% humidity. The PDC lines were cultured according to standard operating procedures established by the NCI PDMR (https://pdmr.cancer.gov/sops/default.htm). All PDCs were thawed and cultured in Matrigel-coated flasks prepared with a working solution of 1X Ham's F-12 nutrient mix, without supplementation (Invitrogen, Waltham, MA, cat. 11765054), 100 U/mL penicillin-streptomycin (Invitrogen, cat. 15140122), and 2.5% Matrigel (Corning Inc., Corning, NY, cat. 354248) for the first three passages. The 354836-022-R-J1-PDC, 475296-252-R-J1-PDC, and 997726-040-R-J2-PDC lines were cultured in 6A media, which includes advanced DMEM/F-12 (Thermo Fisher Scientific, cat. 12634028), 10 mM HEPES (Thermo Fisher Scientific, cat. 15630080), 1X GlutaMAX supplement (Thermo Fisher Scientific, cat. 35050061), 0.1 mg/mL primocin (InvivoGen, San Diego, CA, cat. ant-pm-2), 10% defined fetal bovine serum, heat inactivated (HyClone Laboratories Inc., Logan, UT, cat. SH30070.03HI), 50% L-WRN conditioned media (ATCC, cat. CRL-3276), 1.25 mM N-Acetyl-L-cysteine (Sigma-Aldrich, cat. A9165), 10 mM nicotinamide (Sigma-Aldrich, cat. N0636), 1X B-27 supplement (Thermo Fisher Scientific, cat. 17504044), 1X N-2 supplement (Thermo Fisher Scientific, cat. 17502048), and 10 microM Y-27632 dihydrochloride (Tocris Bioscience, Bristol, United Kingdom, cat. 1254). The 624824-186-R-J2-PDC line was cultured in 6C/Colon 1B media, which includes all 6A media components plus 50 ng/mL human EGF recombinant protein (Thermo Fisher Scientific, cat. PHG0311). […]

[1] = second compound 0.00316 µM, first compound 0.0316 µM
[2] = second compound 0.00316 µM, first compound 0.1 µM
[3] = second compound 0.00316 µM, first compound 0.316 µM
[4] = second compound 0.00316 µM, first compound 1 µM
[5] = second compound 0.00316 µM, first compound 3.16 µM
[6] = second compound 0.00316 µM, first compound 10 µM
[7] = second compound 0.01 µM, first compound 0.0316 µM
[8] = second compound 0.01 µM, first compound 0.1 µM
[9] = second compound 0.01 µM, first compound 0.316 µM
[10] = second compound 0.01 µM, first compound 1 µM
[11] = second compound 0.01 µM, first compound 3.16 µM
[12] = second compound 0.01 µM, first compound 10 µM
[13] = second compound 0.0316 µM, first compound 0.0316 µM
[14] = second compound 0.0316 µM, first compound 0.1 µM
[15] = second compound 0.0316 µM, first compound 0.316 µM
[16] = second compound 0.0316 µM, first compound 1 µM
[17] = second compound 0.0316 µM, first compound 3.16 µM
[18] = second compound 0.0316 µM, first compound 10 µM
[19] = second compound 0.1 µM, first compound 0.0316 µM
[20] = second compound 0.1 µM, first compound 0.1 µM
[21] = second compound 0.1 µM, first compound 0.316 µM
[22] = second compound 0.1 µM, first compound 1 µM
[23] = second compound 0.1 µM, first compound 3.16 µM
[24] = second compound 0.1 µM, first compound 10 µM
[25] = second compound 0.316 µM, first compound 0.0316 µM
[26] = second compound 0.316 µM, first compound 0.1 µM
[27] = second compound 0.316 µM, first compound 0.316 µM
[28] = second compound 0.316 µM, first compound 1 µM
[29] = second compound 0.316 µM, first compound 3.16 µM
[30] = second compound 0.316 µM, first compound 10 µM
[31] = second compound 1 µM, first compound 0.0316 µM
[32] = second compound 1 µM, first compound 0.1 µM
[33] = second compound 1 µM, first compound 0.316 µM
[34] = second compound 1 µM, first compound 1 µM
[35] = second compound 1 µM, first compound 3.16 µM
[36] = second compound 1 µM, first compound 10 µM
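Further: spheroids exposed to agents for seven days before the viability read.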

SMILES: CC(C)NCC(C(=O)N1CCN(c2ncnc3c2C(C)CC3O)CC1)c1ccc(Cl)cc1 (stereo unspecified) + CC(Nc1ccc2c(c1)OCCn1cc(N3C(=O)OCC3C(F)F)nc1-2)C(N)=O
- IC50 (second compound 0.00316 µM): 242 nM
- IC50 (second compound 0.01 µM): 328 nM
- IC50 (second compound 0.0316 µM): 333 nM
- IC50 (second compound 0.1 µM): 590 nM
- IC50 (second compound 0.316 µM): 202 nM
- IC50 (second compound 1 µM): 72.2 nM
- viability, T/C [1]: 82.9%
- viability, T/C [2]: 69.4%
- viability, T/C [3]: 42.8%
- viability, T/C [4]: 26.7%
- viability, T/C [5]: 22.1%
- viability, T/C [6]: 12.5%
- viability, T/C [7]: 95.5%
- viability, T/C [8]: 68.5%
- viability, T/C [9]: 58.2%
- viability, T/C [10]: 24.4%
- viability, T/C [11]: 22.3%
- viability, T/C [12]: 8.88%
- viability, T/C [13]: 74.5%
- viability, T/C [14]: 75%
- viability, T/C [15]: 45.8%
- viability, T/C [16]: 31.9%
- viability, T/C [17]: 21.3%
- viability, T/C [18]: 10.8%
- viability, T/C [19]: 75.4%
- viability, T/C [20]: 73.6%
- viability, T/C [21]: 68.5%
- viability, T/C [22]: 34.2%
- viability, T/C [23]: 18.6%
- viability, T/C [24]: 8.92%
- viability, T/C [25]: 62.4%
- viability, T/C [26]: 58.6%
- viability, T/C [27]: 44.7%
- viability, T/C [28]: 28.4%
- viability, T/C [29]: 16.2%
- viability, T/C [30]: 7.58%
- viability, T/C [31]: 56.7%
- viability, T/C [32]: 45.9%
- viability, T/C [33]: 38.9%
- viability, T/C [34]: 28%
- viability, T/C [35]: 15.8%
- viability, T/C [36]: 9.1%

SMILES: CCN1CCN(Cc2ccc(Nc3ncc(F)c(-c4cc(F)c5nc(C)n(C(C)C)c5c4)n3)nc2)CC1 + CC(Nc1ccc2c(c1)OCCn1cc(N3C(=O)OCC3C(F)F)nc1-2)C(N)=O
- IC50 (second compound 0.00316 µM): > 1000 nM
- IC50 (second compound 0.01 µM): > 1000 nM
- IC50 (second compound 0.0316 µM): > 1000 nM
- IC50 (second compound 0.1 µM): 713 nM
- IC50 (second compound 0.316 µM): 425 nM
- IC50 (second compound 1 µM): 162 nM
- viability, T/C (second compound 0.00316 µM, first compound 0.00316 µM): 99.9%
- viability, T/C (second compound 0.00316 µM, first compound 0.01 µM): 99.6%
- viability, T/C [1]: 93.1%
- viability, T/C [2]: 105%
- viability, T/C [3]: 104%
- viability, T/C [4]: 67.5%
- viability, T/C (second compound 0.01 µM, first compound 0.00316 µM): 100%
- viability, T/C (second compound 0.01 µM, first compound 0.01 µM): 97.8%
- viability, T/C [7]: 116%
- viability, T/C [8]: 85%
- viability, T/C [9]: 89.2%
- viability, T/C [10]: 69.6%
- viability, T/C (second compound 0.0316 µM, first compound 0.00316 µM): 95.8%
- viability, T/C (second compound 0.0316 µM, first compound 0.01 µM): 80.7%
- viability, T/C [13]: 84.7%
- viability, T/C [14]: 101%
- viability, T/C [15]: 85.7%
- viability, T/C [16]: 57.5%
- viability, T/C (second compound 0.1 µM, first compound 0.00316 µM): 89.2%
- viability, T/C (second compound 0.1 µM, first compound 0.01 µM): 82.9%
- viability, T/C [19]: 75.6%
- viability, T/C [20]: 94.1%
- viability, T/C [21]: 75.9%
- viability, T/C [22]: 39.2%
- viability, T/C (second compound 0.316 µM, first compound 0.00316 µM): 65%
- viability, T/C (second compound 0.316 µM, first compound 0.01 µM): 79.3%
- viability, T/C [25]: 67.5%
- viability, T/C [26]: 62.1%
- viability, T/C [27]: 61.5%
- viability, T/C [28]: 22.9%
- viability, T/C (second compound 1 µM, first compound 0.00316 µM): 64%
- viability, T/C (second compound 1 µM, first compound 0.01 µM): 54.1%
- viability, T/C [31]: 67.6%
- viability, T/C [32]: 47.5%
- viability, T/C [33]: 46.4%
- viability, T/C [34]: 14.2%

SMILES: Cn1ncc(Cl)c1-c1cc(C(=O)NC(CN)Cc2cccc(F)c2)sc1Cl (stereo unspecified) + CC(Nc1ccc2c(c1)OCCn1cc(N3C(=O)OCC3C(F)F)nc1-2)C(N)=O
- IC50 (second compound 0.00316 µM): 85.2 nM
- IC50 (second compound 0.01 µM): 92.4 nM
- IC50 (second compound 0.0316 µM): 105 nM
- IC50 (second compound 0.1 µM): 129 nM
- IC50 (second compound 0.316 µM): 92.9 nM
- IC50 (second compound 1 µM): 37.2 nM
- viability, T/C [1]: 64.3%
- viability, T/C [2]: 48.1%
- viability, T/C [3]: 33.3%
- viability, T/C [4]: 20.1%
- viability, T/C [5]: 19.9%
- viability, T/C [6]: 5.31%
- viability, T/C [7]: 75.2%
- viability, T/C [8]: 47.5%
- viability, T/C [9]: 30.2%
- viability, T/C [10]: 18.9%
- viability, T/C [11]: 18.3%
- viability, T/C [12]: 5.41%
- viability, T/C [13]: 66.6%
- viability, T/C [14]: 56.4%
- viability, T/C [15]: 27.3%
- viability, T/C [16]: 23.9%
- viability, T/C [17]: 16.9%
- viability, T/C [18]: 3.21%
- viability, T/C [19]: 83.1%
- viability, T/C [20]: 56%
- viability, T/C [21]: 29.9%
- viability, T/C [22]: 24.2%
- viability, T/C [23]: 15.9%
- viability, T/C [24]: 4.25%
- viability, T/C [25]: 71%
- viability, T/C [26]: 48.8%
- viability, T/C [27]: 30.7%
- viability, T/C [28]: 20.5%
- viability, T/C [29]: 12.9%
- viability, T/C [30]: 5.46%
- viability, T/C [31]: 50.6%
- viability, T/C [32]: 45.2%
- viability, T/C [33]: 32.2%
- viability, T/C [34]: 25%
- viability, T/C [35]: 13%
- viability, T/C [36]: 4.09%
